Measured values from PubChem BioAssay (NCI).
Several values for one entry are separate records, joined by “and”; a condition that tells them apart may be missing. Equal values may be shown once.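 1) Cells in 96-well plates. 2) Compound, 48 h, 5 concentrations. 3) Linear interpolation between surrounding doses. 4) Unreached endpoint = highest concentration. GI50 = concentration required for 50% inhibition of growth. TGI marks complete inhibition of growth.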

Legend:
Assay in all cases: inhibition of tumour cell growth, NCI panel, 48 h
TK-10 renal = tested on: TK-10 renal
DU-145 prostate = tested on: DU-145 prostate
M19-MEL melanoma = tested on: M19-MEL melanoma
DLD-1 colon = tested on: DLD-1 colon
SN12K1 renal = tested on: SN12K1 renal
SNB-78 CNS = tested on: SNB-78 CNS
T-47D breast = tested on: T-47D breast
KM20L2 colon = tested on: KM20L2 colon
DMS 273 small cell lung = tested on: DMS 273 small cell lung
DMS 114 small cell lung = tested on: DMS 114 small cell lung

SMILES	TGI (TK-10 renal) [nM]	GI50 (DU-145 prostate) [nM]	TGI (DU-145 prostate) [nM]	TGI (M19-MEL melanoma)	TGI (DLD-1 colon)	TGI (SN12K1 renal)	TGI (SNB-78 CNS)	TGI (T-47D breast) [nM]	TGI (KM20L2 colon)	TGI (DMS 273 small cell lung)	TGI (DMS 114 small cell lung) [nM]	also measured
O=C(CCN1CCCC1)Nc1ccc2c(NCCCCc3ccccc3)c3ccccc3nc2c1	2860	1150	2390	–	–	–	–	–	–	–	–	GI50 (TK-10 renal): 1400 nM
Cc1c2cc[n+](C)cc2c(C)c2c1[nH]c1ccc(O)cc12	> 100000	–	74700	48000 nM	> 100000 nM	> 82700 nM	> 100000 nM	11000	> 100000 nM	> 78600 nM	69600	–
CC(=O)O[C@H]1C(=O)[C@]2(C)[C@@H](OC(=O)OCC(O)CO)C[C@H]3OC[C@@]3(OC(C)=O)[C@H]2[C@H](OC(=O)c2ccccc2)[C@]2(O)C[C@H](OC(=O)[C@H](O)[C@@H](NC(=O)c3ccccc3)c3ccccc3)C(C)=C1C2(C)C (stereo partly drawn)	70800	–	–	–	–	–	–	–	–	–	–	–
O=c1c(-c2ccccc2)c[nH]c2cc([N+](=O)[O-])c(/C(Cl)=C/c3ccccc3)cc12	–	–	–	> 42500 nM	13600 nM	> 41700 nM	> 27000 nM	–	> 54300 nM	> 38700 nM	19000	–
COc1cc2c(cc1-c1c(C)noc1C)ncc1nc(C3CCCCC3)n(C3CCC(OC(F)F)CC3)c12 (stereo not drawn)	–	3520	> 100000	–	–	–	–	–	–	–	–	–
CCP(=O)(CC)C(Cl)(Cl)C(=O)NC	> 100000	–	> 100000	–	–	–	–	> 100000	–	–	–	–
Cc1c2cc[n+](C)cc2c(COC2OC(CO)C(O)C2O)c2c3ccccc3n(C)c12 (stereo not drawn)	–	–	–	> 100000 nM	> 100000 nM	> 100000 nM	> 100000 nM	–	> 100000 nM	> 100000 nM	> 100000	–
CC(C)(C)CC(C)(C)Cc1ccc(OCCOCC[N+](C)(C)Cc2ccccc2)cc1	12700	3680	13800	–	–	–	–	3940	–	–	–	GI50 (TK-10 renal): 2830 nM; GI50 (T-47D breast): 1410 nM
CC(=O)OC1CC2(O)C(CCC3(C)C(c4ccc(=O)oc4)CCC32O)C2(C)CCC(O)C=C12 (stereo not drawn)	–	–	–	187 nM and 111 nM	107 nM and 58.3 nM	119 nM and 393 nM	470 nM and 86.6 nM	–	191 nM and 187 nM	71.4 nM and 47.8 nM	16.4	GI50 (M19-MEL melanoma): 37.5 nM; GI50 (DLD-1 colon): 15.2 nM; GI50 (SN12K1 renal): 37.5 nM; GI50 (SNB-78 CNS): 37.5 nM; GI50 (KM20L2 colon): 37.5 nM; GI50 (DMS 273 small cell lung): 37.5 nM
